The values below come from publication PMC3958129, “Enzyme kinetics and distinct modulation of the protein kinase N family of kinases by lipid activators and small molecule inhibitors” (Bioscience Reports, 2014).

In assay [1] the test system is PKN2. More on the design: method as in PMID 17850214, PMID 10998351. The following applies: ref [29],[30], cited from earlier work.
Assay [2] has as its target T1, PKN1 (Homo sapiens, UniProt Q16512). Kind of assay: PKN1 kinase inhibition, off-chip mobility shift assay. Type of assay: biochemical. More on the design: Full-length, FLAG-tagged human PKN1, PKN2 and PKN3 were expressed in mammalian HEK-293 cells; host or cells: HEK-293 (transient transfection, pcDNA4/TO).
In assay [3] the target is T1, PKN1. Kind of assay: Bisubstrate steady-state kinetic analysis of PKN1 in the presence of arachidonic acid.
Assay [4] addresses T2, PKN2 (Homo sapiens, UniProt Q16513). Briefly: Bisubstrate steady-state kinetic analysis of PKN2 in the presence of arachidonic acid.
For assay [5], the target named is T3, PKN3 (Homo sapiens, UniProt Q6P5Z2). Briefly: Bisubstrate steady-state kinetic analysis of PKN3 in the presence of arachidonic acid.
T3 sequence (Q6P5Z2 whole entry): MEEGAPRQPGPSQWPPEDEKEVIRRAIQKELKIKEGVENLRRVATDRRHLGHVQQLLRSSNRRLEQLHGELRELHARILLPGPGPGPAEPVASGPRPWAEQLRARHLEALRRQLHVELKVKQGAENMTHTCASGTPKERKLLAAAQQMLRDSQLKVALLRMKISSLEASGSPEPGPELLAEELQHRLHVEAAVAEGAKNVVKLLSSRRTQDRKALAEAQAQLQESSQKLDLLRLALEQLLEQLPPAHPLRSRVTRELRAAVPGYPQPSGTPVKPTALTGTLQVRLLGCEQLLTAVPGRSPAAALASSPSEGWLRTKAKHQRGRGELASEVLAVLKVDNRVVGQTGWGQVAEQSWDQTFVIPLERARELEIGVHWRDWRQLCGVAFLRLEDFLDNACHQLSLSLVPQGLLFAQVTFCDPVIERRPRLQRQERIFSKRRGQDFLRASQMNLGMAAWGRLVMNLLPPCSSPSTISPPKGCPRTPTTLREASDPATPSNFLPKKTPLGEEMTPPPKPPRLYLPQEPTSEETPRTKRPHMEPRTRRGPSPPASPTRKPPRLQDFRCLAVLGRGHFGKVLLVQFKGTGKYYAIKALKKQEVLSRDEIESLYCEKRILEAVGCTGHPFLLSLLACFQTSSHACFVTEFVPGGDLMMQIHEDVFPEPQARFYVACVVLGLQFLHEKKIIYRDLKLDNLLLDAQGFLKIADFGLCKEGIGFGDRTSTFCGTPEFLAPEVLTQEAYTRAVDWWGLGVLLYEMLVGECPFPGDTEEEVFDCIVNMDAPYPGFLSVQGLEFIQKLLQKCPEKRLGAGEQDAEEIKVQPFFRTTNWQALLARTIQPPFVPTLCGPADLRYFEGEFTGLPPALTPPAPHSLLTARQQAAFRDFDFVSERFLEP
The target in assay [6] is T3, PKN3. Kind of assay: Lipid activation of PKN3 kinase activity, off-chip mobility shift assay. Type of assay: biochemical. More on the design: Full-length, FLAG-tagged human PKN1, PKN2 and PKN3 were expressed in mammalian HEK-293 cells. Here is the method:
(§1) Lipids were supplied as a solid powders, ethanol, or chloroform solutions. All solids were dissolved directly into assay buffer and briefly water bath sonicated at room temperature for 10 min. Lipids supplied as solutions in organic solvent were dried under a gentle stream of nitrogen, resuspended in assay buffer, and similarly sonicated. All lipids were prepared fresh daily.
(§2) The activity of all PKN proteins was monitored through the use of a highly sensitive off-chip mobility shift assay utilizing a LabChip EZ Reader II instrument (Caliper Life Sciences/PerkinElmer); this assay format has been described elsewhere. Kinase activity was monitored through the phosphorylation of a 5-FAM-labelled PKN substrate peptide found through Pfizer in-house optimization efforts and derived from the amino acid sequence of GSK3α (accession no. AAH51865.1) with the following sequence: 5-FAM-C6-[…]-NH2. The likely site of phosphorylation is underlined, as determined through comparison with the published phosphorylation consensus sequence for PKN1 and PKN3 substrates. Reaction buffer contained 25 mM Tris, pH 8.0, 5 mM MgCl2, 0.002% CHAPS and 2 mM DTT, with indicated protein, ATP and peptide concentrations. Peptide concentration was adjusted according to purity and peptide content. For inhibition studies, the inhibitor was pre-incubated with enzyme for 15 min at room temperature. All reactions were initiated with ATP and conducted at room temperature (~22°C). Reactions were terminated by the addition of EDTA, pH 8.0, at a final concentration of 25 mM. All reaction rates were determined to be linear with respect to time and enzyme concentration where no more than 20% of peptide substrate had been converted to product. Aliquots of each reaction were transferred in duplicate to a 384-well plate and analysed on a LabChip EZ Reader II with separation buffer containing 100 mM Hepes, pH 7.5, 0.015% Brij-35, 1 mM EDTA, 0.1% CR3 coating reagent, 1×CR8 coating reagent and 5% DMSO, with the following settings: downstream voltage: −500 V, upstream voltage: −2300 V, base pressure: −0.5 psi; screen pressure: −1.7 psi.
Ki values for representative inhibitors were determined by fitting initial reaction velocities to eqn (2) for competitive inhibition using the method of non-linear least-squares using GraphPad Prism. Turnover number (kcat) was calculated by normalizing Vmax values for enzyme concentration.
(§3) Figure 2 PKN responses to lipid activators in biochemical assays Lipids were prepared as described under the Experimental section, and kinase activity of PKN isoforms was measured using off-chip mobility shift assay described in the Methods section. Each lipid was titrated in the presence of 1 nM, 5 nM and 3 nM PKN1–3, respectively, 3 μM peptide and 500 μM ATP. vi is the initial rate at each concentration of lipid activator and vo is the initial rate in the absence of lipid.

Assay [7] concerns the target T1, PKN1. Kind of assay: Lipid activation of PKN1 kinase activity, off-chip mobility shift assay. Type of assay: biochemical. Also on record: Full-length, FLAG-tagged human PKN1, PKN2 and PKN3 were expressed in mammalian HEK-293 cells; host or cells: HEK-293 (transient transfection, pcDNA4/TO). The following applies: saturating ATP (500 μM), 3 μM peptide, 1 nM PKN1; for PKN1 Maximal fold activation: increase in initial rate. As for the experimental part: as §1
as §2, with “psi. […]” for “psi.”
as §3

The target of assay [8] is T2, PKN2. Briefly: Lipid activation of PKN2 kinase activity, off-chip mobility shift assay. Type of assay: biochemical. More on the design: Full-length, FLAG-tagged human PKN1, PKN2 and PKN3 were expressed in mammalian HEK-293 cells; host or cells: HEK-293 (transient transfection, pcDNA4/TO). Here is the method:
as §1
as §2, with “psi. […]” for “psi.”
as §3

For a further assay, the system named is RIP2. The settings on record: read-out: IC50 RIP2; panel of over 70 protein kinases; ref [29]; cited from earlier work.
A further assay concerns Lck. The following applies: read-out: IC50 Lck; panel of over 70 protein kinases; ref [29]; cited from earlier work.
Another assay relates to Src. The settings on record: read-out: IC50 Src; panel of over 70 protein kinases; ref [29]; cited from earlier work.
Another assay has as its system CK1δ. The settings on record: read-out: IC50 CK1δ; panel of over 70 protein kinases; ref [29]; cited from earlier work.
In another assay the test system is CSK. The following applies: read-out: IC50 CSK; panel of over 70 protein kinases; ref [29]; cited from earlier work.
The target in assay [9] is T3, PKN3. Briefly: PKN3 kinase inhibition, off-chip mobility shift assay. The format is biochemical. More on the design: Full-length, FLAG-tagged human PKN1, PKN2 and PKN3 were expressed in mammalian HEK-293 cells.
A further assay has as its system PKN1, PKN2 and PKN3. Briefly: PKN isoform selectivity from Ki values (Ki ratio). Type of assay: biochemical, human.
Assay [10] addresses T2, PKN2. Kind of assay: PKN2 kinase inhibition, off-chip mobility shift assay. Type of assay: biochemical. Also on record: Full-length, FLAG-tagged human PKN1, PKN2 and PKN3 were expressed in mammalian HEK-293 cells; host or cells: HEK-293 (transient transfection, pcDNA4/TO). The following applies: absence of lipids; fit to competitive inhibition; ±S.D., n=2; read-out: PKN2, Ki.

Where [11] appears, read: absence of lipids, fit to competitive inhibition, ±S.D., n=2, read-out: PKN1, Ki.
Where [12] appears, read: 100 μM vs 0 μM arachidonic acid.

Where two headings read alike, the source gives them in different places.

T2 sequence (Q16513 whole entry): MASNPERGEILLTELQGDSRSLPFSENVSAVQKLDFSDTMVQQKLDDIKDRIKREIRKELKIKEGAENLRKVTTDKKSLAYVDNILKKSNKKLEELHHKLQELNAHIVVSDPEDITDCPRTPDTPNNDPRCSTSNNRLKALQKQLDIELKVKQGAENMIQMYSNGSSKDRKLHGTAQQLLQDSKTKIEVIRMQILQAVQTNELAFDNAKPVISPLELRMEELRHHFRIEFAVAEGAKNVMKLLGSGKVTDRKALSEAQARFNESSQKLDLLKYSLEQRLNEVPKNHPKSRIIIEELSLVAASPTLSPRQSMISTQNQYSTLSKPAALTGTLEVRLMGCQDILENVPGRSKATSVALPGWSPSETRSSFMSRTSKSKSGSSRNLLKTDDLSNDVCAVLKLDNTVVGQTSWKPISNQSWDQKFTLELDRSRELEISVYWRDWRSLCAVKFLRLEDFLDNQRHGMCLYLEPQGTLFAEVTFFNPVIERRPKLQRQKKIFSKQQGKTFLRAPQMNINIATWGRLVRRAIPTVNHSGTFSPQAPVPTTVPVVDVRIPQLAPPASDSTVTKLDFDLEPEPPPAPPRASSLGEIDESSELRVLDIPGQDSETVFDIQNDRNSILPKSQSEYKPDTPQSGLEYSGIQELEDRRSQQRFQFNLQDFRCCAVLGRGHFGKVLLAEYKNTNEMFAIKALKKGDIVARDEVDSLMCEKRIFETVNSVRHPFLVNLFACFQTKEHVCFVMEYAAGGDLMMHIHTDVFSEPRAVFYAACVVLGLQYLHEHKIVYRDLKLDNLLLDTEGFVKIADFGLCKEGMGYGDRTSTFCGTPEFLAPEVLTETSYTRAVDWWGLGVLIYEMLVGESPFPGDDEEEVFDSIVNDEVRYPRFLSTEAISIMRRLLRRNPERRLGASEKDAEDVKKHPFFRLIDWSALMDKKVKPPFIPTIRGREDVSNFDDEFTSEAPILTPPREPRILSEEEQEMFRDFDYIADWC
T1 sequence (Q16512 whole entry): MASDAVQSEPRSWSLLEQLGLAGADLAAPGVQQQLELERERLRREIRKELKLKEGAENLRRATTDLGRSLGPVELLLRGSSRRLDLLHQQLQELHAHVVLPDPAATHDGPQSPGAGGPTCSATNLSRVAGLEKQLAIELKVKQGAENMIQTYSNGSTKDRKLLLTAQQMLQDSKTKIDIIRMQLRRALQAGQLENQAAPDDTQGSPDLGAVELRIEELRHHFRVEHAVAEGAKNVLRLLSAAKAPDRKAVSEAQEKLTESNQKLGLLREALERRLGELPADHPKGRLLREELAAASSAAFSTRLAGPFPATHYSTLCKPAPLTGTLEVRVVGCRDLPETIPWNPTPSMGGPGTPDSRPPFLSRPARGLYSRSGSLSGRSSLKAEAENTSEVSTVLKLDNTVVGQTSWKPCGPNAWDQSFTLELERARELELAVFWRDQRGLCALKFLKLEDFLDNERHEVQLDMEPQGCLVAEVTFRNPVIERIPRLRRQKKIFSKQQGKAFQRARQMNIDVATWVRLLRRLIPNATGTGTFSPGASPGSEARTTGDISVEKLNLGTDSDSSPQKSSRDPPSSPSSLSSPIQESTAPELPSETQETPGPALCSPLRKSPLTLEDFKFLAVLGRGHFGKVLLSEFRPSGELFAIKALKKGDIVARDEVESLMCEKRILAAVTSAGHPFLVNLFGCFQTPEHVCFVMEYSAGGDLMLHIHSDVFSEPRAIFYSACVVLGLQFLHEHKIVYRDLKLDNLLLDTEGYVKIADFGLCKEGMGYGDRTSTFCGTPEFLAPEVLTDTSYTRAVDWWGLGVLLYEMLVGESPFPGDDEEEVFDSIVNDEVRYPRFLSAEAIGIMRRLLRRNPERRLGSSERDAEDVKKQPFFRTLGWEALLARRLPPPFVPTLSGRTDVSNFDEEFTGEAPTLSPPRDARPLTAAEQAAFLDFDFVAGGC

Consider `C[C@@H](N)[C@H]1CC[C@H](C(=O)Nc2ccncc2)CC1` [Compound 7, Y27632], for which the IC50 in the assay with PKN2 [1] is […]. For the same molecule, the Ki at PKN1 [2] (setting [11]) came out at 700 ± 200 nM.

Turning to `CCCCC/C=C\C/C=C\C/C=C\C/C=C\CCCC(=O)O` [Arachidonic Acid], at PKN1 [3] (100 μM arachidonic acid), the “Kia of PKN1 (equilibrium dissociation constant of ATP)” value worked out at 19 ± 10 µM and the “kcat of PKN1” value is 13 ± 6 s⁻¹. Also, on PKN1 [3] (setting [12]), the “effect on ATP KM for PKN1” value was “relatively unaffected”, the “increase in catalytic efficiency (kcat/KM,Pep) of PKN1” value was 32 fold and the “increase in kcat for PKN1” value is on record as 18 fold. Also, at PKN2 [4] (100 μM arachidonic acid), the “Kia of PKN2 (equilibrium dissociation constant of ATP)” value came out at 2 ± 1 µM and the “kcat of PKN2” value amounted to 0.9 ± 0.1 s⁻¹. Besides, on PKN2 [4] (setting [12]), the “increase in catalytic efficiency (kcat/KM,Pep) of PKN2” value is reported as 12 fold, the “increase in kcat for PKN2” value came out at 9 fold, the “increase in kcat/KM,ATP of PKN2” value is recorded as 45 fold and the “reduction of ATP KM for PKN2” value stood at 6 fold. In addition, on PKN3 [5] (5 μM arachidonic acid), the “Kia of PKN3 (equilibrium dissociation constant of ATP)” value came to 14 ± 3 µM and the “kcat of PKN3” value came to 1.1 ± 0.1 s⁻¹. For the same molecule, the “reduction of ATP KM for PKN3” value on PKN3 [5] (5 μM vs 0 μM arachidonic acid) stood at 3 fold. On PKN3 [5] (arachidonic acid at 5 μM), the “effect on kcat for PKN3” value was “no effect”. Besides, the “decrease in KM,Pep of PKN3” value at PKN3 [5] (arachidonic acid at 5 μM vs 0 μM) is 4 fold. The “effect on PKN3 kinase activity” value at PKN3 [6] (higher concentrations of arachidonic acid (above 5 μM)) is “significantly inhibited”. Also, the “PKN3 Maximal fold activation” value at PKN3 [6] (increase in initial rate, saturating ATP (500 μM), 3 μM peptide, 3 nM PKN3) is reported as <2 fold. Also, the “effect on PKN3 kinase activity” value on PKN3 [6] (relatively low (5 μM) concentration of arachidonic acid) was “slightly stimulated”. Also, the “PKN1 Maximal fold activation” value on PKN1 [7] was 16 fold. The “PKN1 Maximal fold activation” value on PKN1 [7] (listed as arachidonic acid) is on record as 10–16 fold. The EC50 on PKN1 [7] (lipid activator) was found to be 11000 ± 1000 nM. The “effect on PKN2 kinase activity” value on PKN2 [8] (in words, saturating ATP) is reported as “increased”. In addition, the “PKN2 Maximal fold activation” value on PKN2 [8] (increase in initial rate, saturating ATP (500 μM), 3 μM peptide, 5 nM PKN2) amounted to 7 fold. Further, the EC50 on PKN2 [8] (lipid activator, saturating ATP (500 μM), 3 μM peptide, 5 nM PKN2) amounted to 9000 ± 1000 nM.

`Cc1ccc(-c2nn(C(C)(C)C)c3ncnc(N)c23)cc1` [Compound 8, PP1]: in the assay on PKN2 [1] (at 1 μM), the PKN2 remaining activity is given as 84%. For the same molecule, the IC50 in the assay on RIP2 is 26 nM; in the assay on Lck, […]; in the assay with Src, […]; in the assay with CK1δ, 170 nM; in the assay with CSK it was 640 nM. Also, the Ki at PKN3 [9] was 1.3 ± 0.1 nM; on PKN1 [2] it was > 5000 nM.

Turning to `Nc1nc(Nc2ccc(S(N)(=O)=O)cc2)nn1C(=S)Nc1c(F)cccc1F` [Compound 6, CDK1/2 inhibitor III], in the assay on PKN1, PKN2 and PKN3 (from Ki values), the “selectivity for PKN2 over PKN1” value was 18 fold. Moreover, the “selectivity for PKN2 over PKN3” value with PKN1, PKN2 and PKN3 (in words) is reported as “only minimal selectivity”. Besides, the Isoform selectivity result with PKN1, PKN2 and PKN3 (isoform(s) preferred, defined as ~10-fold or greater Ki ratio) is “PKN2/3”. The Ki at PKN3 [9] (absence of lipids, fit to competitive inhibition, ±S.D., n=2, read-out: PKN3, Ki) is 34 ± 2 nM; at PKN1 [2] (setting [11]), 220 ± 20 nM; on PKN2 [10], 12 ± 2 nM.

As a reminder, the IC50 is the point on the concentration scale where inhibition reaches its midpoint. For orientation: Ki means the dissociation constant of the complex between target and ligand, obtained from inhibition or displacement. What is called EC50 is the concentration giving half of the maximal effect.
